The test system of one data set is Apis mellifera. The note with it: acute, mortality.
For another data set, the system named is Bibionidae. To be noted: chronic/long-term; duration: 28 days; development.
The test system of the next data set is Canidae. The note with it: oral, Dog Other.
The next data set concerns Colinus virginianus. The note with it: acute; oral; mortality.
The subject of the next data set is Daphnia magna. To be noted: chronic/long-term; duration: 21 days; reproduction.
A further data set deals with Folsomia candida. To be noted: chronic/long-term; duration: 28 days.
Another data set deals with Hypoaspis aculeifer. The note with it: chronic/long-term; duration: 14 days.
The next data set deals with Oncorhynchus mykiss. To be noted: chronic/long-term; duration: 21 days; growth.
A further data set concerns Aphidius rhopalosiphi. As to the kind of experiment: LR50; higher = less toxic. The note with it: not reported; mortality.
Another data set has as its system Typhlodromus pyri. As to the kind of experiment: LR50; higher = less toxic. The note with it: not reported; mortality.

Some results are limits rather than exact numbers.

Take `CC(C)c1ccc(NC(=O)N(C)C)cc1` [Isoproturon]: the LD50 in the data set with Apis mellifera (dermal) is more than 100 µg/piece; with Apis mellifera (oral, unspecified), more than 99.2 µg/piece; in the data set on Colinus virginianus it was 1400 mg/kg-day; with Rattus norvegicus (acute, mortality), 1830 mg/kg-day. Further, the NOEC in the data set on Bibionidae is 0.344 mg/L; in the data set on Daphnia magna, 0.12 mg/L; with Folsomia candida, 24.3 mg/kg; with Hypoaspis aculeifer, more than 459 mg/kg; with Oncorhynchus mykiss it was 1 mg/L; in the data set on Rattus norvegicus (chronic), 10 mg/kg-day. Besides, the NOEC with Tagia sp. (chronic/long-term, duration: 8 weeks) was found to be 14 mg/kg. In addition, the NOAEL amounted to 3.2 mg/kg-day with Canidae (short-term, histopathology: nonneoplastic); 10 mg/kg-day in the data set with Canidae (subchronic, duration: 90 days, hematological); 12 mg/kg-day in the data set on Coturnix japonica (reproduction developmental, reproduction); 3.1 mg/kg-day with Rattus norvegicus (chronic, duration: 2 years, histopathology: neoplastic). Further, the LC50 in the data set on Coturnix japonica (acute, oral, diet, mortality) was more than 5000 mg/kg; in the data set on Tagia sp. (acute, duration: 14 days, mortality), more than 500 mg/kg. Moreover, the LR50 in the data set on Aphidius rhopalosiphi and in the data set with Typhlodromus pyri was more than 2500 g/ha throughout.
